Results on 70 molecules are retold here after patent US10633338B2, “Binding Function 3 (BF3) site compounds as therapeutics and methods for their use” (THE UNIVERSITY OF BRITISH COLUMBIA, priority 2014, dated 2020).

Where two headings read alike, the source gives them in different places.

This assay addresses T1, androgen receptor (AR) (Homo sapiens, UniProt P10275, T878A).
T1 construct: stably transfected eGFP-expressing LNCaP human prostate cancer cells (LN-ARR2PB-eGFP) containing an androgen responsive probasin-derived promoter; endogenous in cells; host or cells: LNCaP (LN-ARR2PB-eGFP)
T1 sequence (P10275 1-920 T878A): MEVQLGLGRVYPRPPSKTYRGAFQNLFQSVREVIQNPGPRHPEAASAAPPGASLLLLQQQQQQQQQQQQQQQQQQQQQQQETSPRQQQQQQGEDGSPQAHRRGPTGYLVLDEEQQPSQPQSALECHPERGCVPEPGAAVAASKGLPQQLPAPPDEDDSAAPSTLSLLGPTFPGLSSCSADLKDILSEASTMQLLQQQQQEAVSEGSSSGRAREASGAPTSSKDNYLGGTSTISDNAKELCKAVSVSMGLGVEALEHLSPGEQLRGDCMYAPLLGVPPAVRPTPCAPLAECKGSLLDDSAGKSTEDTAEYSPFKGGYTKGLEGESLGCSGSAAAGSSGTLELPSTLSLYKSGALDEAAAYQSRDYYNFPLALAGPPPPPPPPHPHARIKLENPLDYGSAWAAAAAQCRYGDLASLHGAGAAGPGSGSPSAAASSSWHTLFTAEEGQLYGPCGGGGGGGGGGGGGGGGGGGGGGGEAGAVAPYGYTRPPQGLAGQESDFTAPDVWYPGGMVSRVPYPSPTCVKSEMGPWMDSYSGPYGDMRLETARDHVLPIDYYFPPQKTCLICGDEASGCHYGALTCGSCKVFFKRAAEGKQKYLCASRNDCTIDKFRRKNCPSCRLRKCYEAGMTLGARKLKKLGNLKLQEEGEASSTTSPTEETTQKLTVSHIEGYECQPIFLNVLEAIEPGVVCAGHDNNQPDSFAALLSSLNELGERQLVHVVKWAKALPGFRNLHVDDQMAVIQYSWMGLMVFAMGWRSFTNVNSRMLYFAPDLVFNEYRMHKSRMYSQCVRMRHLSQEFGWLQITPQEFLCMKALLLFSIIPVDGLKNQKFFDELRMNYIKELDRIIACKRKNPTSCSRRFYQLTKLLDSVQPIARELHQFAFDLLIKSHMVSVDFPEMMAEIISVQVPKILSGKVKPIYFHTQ
Briefly: eGFP cellular AR transcription assay. Format: cell-based. How it is done: After 5 days, the cells were plated into a 96-well plate (35,000 cells/well) with 0.1 nM of the synthetic androgen R1881 and increasing concentrations (0-100 μM) of compound.
After 5 days, the cells were plated into a 96-well plate (35,000 cells/well) with 0.1 nM R1881 and increasing concentrations (0-100 μM) of compound.
In this assay, the expression of eGFP is under the control of an androgen responsive probasin-derived promoter and can quantify AR transcriptional activity.

Where [1] appears, read: LN-ARR2PB-eGFP LNCaP cells, 0.1 nM R1881, 3 days, 0-100 μM compound, read-out: IC50 (eGFP).
The mark [2] stands for this setting: LN-ARR2PBeGFP LNCaP cells, 0.1 nM R1881, 3 days incubation, read-out: eGFP IC50.
Where [3] appears, read: LN-ARR2PBeGFP LNCaP cells, 0.1 nM R1881, 3 days incubation.

The IC50 is the point on the concentration scale where inhibition reaches its midpoint. As for `CC1(C)c2ccccc2NC1c1c[nH]c2ccc(N)cc12` (stereo not shown) [13 538], under setting [1], the half-maximal inhibitory concentration (IC50) came out at 7.7 µM.

As for `CC1(C)c2cc(Br)ccc2NC1c1c[nH]c2cc(O)ccc12` (stereo not shown) [13 542], the half-maximal inhibitory concentration (IC50) under setting [1] worked out at 5.7 µM. Still for that read-out and setting: in the case of `CC1(C)c2ccccc2NC1c1c[nH]c2cc(OCc3ccccc3)ccc12` (stereo not shown) [13 544] it was 11.4 µM; in that of `Cc1cc(-c2c[nH]c3ccccc23)nc2ccccc12` [13 547], 5.6 µM; in that of `c1ccc(COc2ccc3c(C4Nc5ccccc5C45CCCCC5)c[nH]c3c2)cc1` (stereo not shown) [13 550], 11.8 µM.

On to `Oc1ccc2c(C3Nc4ccccc4C34CCCCC4)c[nH]c2c1` (stereo not shown) [13 551], for which the IC50 under setting [1] came out at 15.5 µM. With `CC1(C)c2ccccc2NC1c1c[nH]c2c(CO)cccc12` (stereo not shown) [13 558], the half-maximal inhibitory concentration (IC50) under setting [1] was 1.6 µM.

Consider `c1ccc2c(c1)N=C(c1c[nH]c3ncccc13)C21CCCCC1` [13 559], for which, under setting [1], the 50% inhibitory concentration (IC50) was 6.6 µM. The same measure, in the same setting: in the case of `CC1(C)c2ccccc2NC1c1c[nH]c2ncccc12` (stereo not shown) [13 560] it was 2.3 µM; in that of `CC1(C)c2ccccc2NC1c1c[nH]c2cnccc12` (stereo not shown) [13 561], 10.7 µM; in that of `Fc1cccc2c(-c3ccc4ccccc4n3)c[nH]c12` [13 569], 1.6 µM. With `Cc1[nH]c2ccccc2c1-c1ccc2ccccc2n1` [13 570], the concentration for half-maximal inhibition (IC50) under setting [1] was 20 µM. Same read-out and setting: in the case of `Cn1cc(-c2ccc3ccccc3n2)c2ccccc21` [13 571] it was 1.1 µM; in that of `c1ccc2nc(-n3ncc4ccccc43)ccc2c1` [13 572], 0.7 µM; in that of `FC(F)(F)c1ccc2c(-c3ccc4ccccc4n3)c[nH]c2c1` [13 580], 2.9 µM.

In the case of `c1cncc(-c2c[nH]c3cnccc23)c1` [13 581], under setting [1], the IC50 is 4.9 µM. On the same count and under the same terms, in the case of `c1ccc(COc2ccc3c(-c4ccc5ccccc5n4)c[nH]c3c2)cc1` [13 589] it was 5.3 µM. Consider `O=C(Nc1ccc(-n2cnc3ccccc32)cc1)c1ccco1` [Compound 6054], for which the IC50 under setting [2] worked out at 3.4 µM. On the same count and under the same terms, in the case of `O=C(Nc1n[nH]c2ccc(Br)cc12)c1cc(Br)ccc1O` [Compound 9026] it was 11.7 µM; in that of `O=C(Nc1n[nH]c2cc(Br)ccc12)c1cc(Br)ccc1O` [Compound 9027], 7.72 µM; in that of `O=C(Nc1nc2cc(Br)ccc2s1)c1cc(Br)ccc1O` [Compound 9028], 10 µM. As to `O=C(/C=C/c1c[nH]c2cc(Br)ccc12)c1cc2ccccc2[nH]1` [Compound 9034], the concentration for half-maximal inhibition (IC50) under setting [2] amounted to 20 µM. Still for that read-out and setting: to `O=C(Nc1cccc(Br)c1O)c1cc2ccc(Br)cc2[nH]1` [Compound 9037] belongs 4.09 µM; to `O=C(Nc1nc2ccc(Br)cc2s1)c1ccccc1O` [Compound 9039], greater than 200 µM. On the same count and under the same terms, to `O=C(Nc1nc2ccc(Br)cc2s1)c1ccc(Br)cc1O` [Compound 9040] belongs 39.1 µM. The same measure, in the same setting: in the case of `Brc1ccc2cc(CCc3cc4ccc(Br)cc4[nH]3)[nH]c2c1` [Compound 9043] it was 2.5 µM.

For the setting “eGFP IC50, LN-ARR2PBeGFP LNCaP cells, 0.1 nM R1881, 3 days incubation”, `Oc1ccc(Cn2c(-c3ccc(O)cc3)nc3ccccc32)cc1` [Compound 13029] displayed an IC50 of 3.22 µM. On to `c1ccc2[nH]c(-c3n[nH]c4ccccc34)nc2c1` [Compound 13036], for which, under setting [2], the half-maximal inhibitory concentration (IC50) was 1.6 µM.

For `Brc1ccc2nc(-c3c[nH]c4ccccc34)cn2c1` [Compound 13050], the half-maximal inhibitory concentration (IC50) under setting [2] was 9.72 µM. Same read-out and setting: in the case of `Clc1ccc(Nc2nc3ccccc3[nH]2)cc1Cl` [Compound 13186] it was 5 µM. Regarding `Cn1cc(CCc2ccncc2)c2ccccc21` [Compound 13202], the IC50 under setting [2] was found to be 2.5 µM. `O=Nn1cc(-c2cc3ccccc3n2N=O)c2ccccc21` [Compound 13206]: the 50% inhibitory concentration (IC50) under setting [2] was 1.8 µM. In the case of `O=c1[nH]c2ccccc2n1-c1nc2ccccc2[nH]1` [Compound 13214], the 50% inhibitory concentration (IC50) under setting [2] came to 2.2 µM. The same measure, in the same setting: in the case of `Clc1ccc(N/N=C2\CCc3ccccc32)cc1Cl` [Compound 13215] it was 2 µM; in that of `Cc1cccn2cc(-c3c[nH]c4ccccc34)nc12` [Compound 13216], 2.8 µM. Still for that read-out and setting: to `c1ccc2c(c1)CCN2c1nc2ccccc2o1` [Compound 13220] belongs 0.7 µM; to `Cc1[nH]c2ccccc2c1SCc1ccccc1F` [Compound 13224], 5 µM. In the case of `N#Cc1cn(CCCOc2ccccc2Cl)c2ccccc12` [Compound 13232], the IC50 under setting [2] amounted to 10 µM. On the same count and under the same terms, to `S=C(c1c[nH]c2ccccc12)N1CCOCC1` [Compound 13243] belongs 3.9 µM; to `C(=C(c1ccccc1)c1ccccc1)c1c[nH]c2ccccc12` [Compound 13250], 4.7 µM; to `Cc1ccc(/N=N/c2c[nH]c3ccccc23)cc1` [Compound 13257], 4.2 µM. As to `c1ccc(-c2ccccc2/N=N/c2c[nH]c3ccccc23)cc1` [Compound 13258], the 50% inhibitory concentration (IC50) under setting [2] was 6.8 µM. Same read-out and setting: in the case of `Cc1cccc2c1CCN2c1nc2ccccc2o1` [Compound 13260] it was 2.7 µM. Same read-out and setting: in the case of `C[C@@H]1Cc2ccccc2N1c1nc2ccccc2o1` [Compound 13261] it was 2.1 µM; in that of `FC(F)(F)c1cccc(/N=C/c2c[nH]c3ccccc23)c1` [Compound 13303], 4.5 µM; in that of `Cc1ccc(/N=C/c2c[nH]c3ccccc23)cc1C` [Compound 13310], 10.3 µM. The same measure, in the same setting: in the case of `Brc1ccc2c(c1)NC(c1c[nH]c3ccc(Br)cc13)C2` (stereo not shown) [Compound 13502] it was 4.1 µM.

On to `Brc1ccc2c(c1)CC(c1c[nH]c3ccc(Br)cc13)N2` (stereo not shown) [Compound 13503], for which the IC50 under setting [2] stood at 4.5 µM. Consider `Cn1c(-c2c[nH]c3ccccc23)cc2ccccc21` [Compound 13505], for which the IC50 under setting [2] was determined as 3.4 µM. On to `CC1(C)c2cc(Br)ccc2NC1c1c[nH]c2ccc(Br)cc12` (stereo not shown) [Compound 13512], for which the concentration for half-maximal inhibition (IC50) under setting [2] was found to be 6 µM. Still for that read-out and setting: in the case of `Cn1cc(C2Nc3ccccc3C2(C)C)c2ccccc21` (stereo not shown) [Compound 13516] it was 3.6 µM; in that of `CC1(C)c2ccccc2NC1c1c[nH]c2ccc(N)cc12` (stereo not shown) [Compound 13538], 7.7 µM. Same read-out and setting: in the case of `Brc1ccc2[nH]c(-c3nc4ccccc4s3)cc2c1` [Compound 13540] it was 2.5 µM; in that of `CC1(C)c2cc(Br)ccc2NC1c1c[nH]c2cc(O)ccc12` (stereo not shown) [Compound 13542], 5.7 µM.

Turning to `CC1(C)c2ccccc2NC1c1c[nH]c2cc(OCc3ccccc3)ccc12` (stereo not shown) [Compound 13544], under setting [2], the half-inhibitory concentration (IC50) came out at 11.4 µM. With `c1ccc(COc2ccc3c(C4Nc5ccccc5C45CCCCC5)c[nH]c3c2)cc1` (stereo not shown) [Compound 13550], the concentration for half-maximal inhibition (IC50) under setting [2] was found to be 11.8 µM. `Oc1ccc2c(C3Nc4ccccc4C34CCCCC4)c[nH]c2c1` (stereo not shown) [Compound 13551]: the half-inhibitory concentration (IC50) under setting [2] amounted to 15.5 µM. `CC1(C)c2ccccc2NC1c1c[nH]c2c(F)cccc12` (stereo not shown) [Compound 13555]: the “eGFP IC50” value under setting [3] was “Inactive”. Turning to `CC1(C)c2ccccc2NC1c1c[nH]c2c(C(=O)O)cccc12` (stereo not shown) [Compound 13557], the “eGFP IC50” value under setting [3] is “Inactive”.

On to `c1ccc2c(c1)N=C(c1c[nH]c3cnccc13)C21CCCCC1` [Compound 13559], for which, under setting [2], the IC50 worked out at 6.6 µM. As for `CC1(C)c2ccccc2NC1c1c[nH]c2cnccc12` (stereo not shown) [Compound 13561], the IC50 under setting [2] was 10.7 µM. In the case of `Fc1cccc2c(-c3ccc4ccccc4n3)c[nH]c12` [Compound 13569], under setting [2], the 50% inhibitory concentration (IC50) worked out at 1.6 µM.

On to `Cc1[nH]c2ccccc2c1-c1ccc2ccccc2n1` [Compound 13570], for which the IC50 under setting [2] worked out at 20 µM. Take `Cn1cc(-c2ccc3ccccc3n2)c2ccccc21` [Compound 13571]: under setting [2], the 50% inhibitory concentration (IC50) was found to be 1.1 µM. Still for that read-out and setting: to `Cc1cccc2c(-c3ccc4cc(F)ccc4n3)c[nH]c12` [Compound 13573] belongs 0.56 µM.

For `Cc1ccc2c(-c3ccc4ccccc4n3)c[nH]c2c1` [Compound 13574], the IC50 under setting [2] was determined as 2.57 µM.

Take `FC(F)(F)c1ccc2c(-c3ccc4ccccc4n3)c[nH]c2c1` [Compound 13580]: the concentration for half-maximal inhibition (IC50) under setting [2] amounted to 2.9 µM. `c1ccc(COc2ccc3c(-c4ccc5ccccc5n4)c[nH]c3c2)cc1` [Compound 13589]: the IC50 under setting [2] was found to be 5.3 µM.

For the molecule `Clc1ccc(Cl)c2c(-c3ccc4ccccc4n3)c[nH]c12` [Compound 13640], under setting [2], the IC50 stood at 12.7 µM.

Take `Cc1cccc2c(-c3ccc4nccnc4n3)c[nH]c12` [Compound 13644]: the IC50 under setting [2] is 3 µM.
